Data set [1] deals with recombinant NL4-3 virus (nef section replaced with Renilla luciferase gene) in MT-2 cells. Put plainly: HIV cell culture assay (antiviral activity, luciferase readout). The data set is classed as cell-based. Conditions: NL43, MT-2 cells infected for 4-5 days with recombinant NL4-3 Renilla luciferase virus. As for the experimental part:
HIV cell culture assay—MT-2 cells, 293T cells and the proviral DNA clone of NL4-3 virus were obtained from the NIH AIDS Research and Reference Reagent Program. MT-2 cells were propagated in RPMI 1640 media supplemented with 10% heat inactivated fetal bovine serum (FBS), […]. The 293T cells were propagated in DMEM media supplemented with 10% heat inactivated FBS, […]. A recombinant NL4-3 proviral clone, in which a section of the nef gene was replaced with the Renilla luciferase gene, was used to make the reference virus used in these studies. The recombinant virus was prepared through transfection of the recombinant NL4-3 proviral clone into 293T cells using Transit-293 Transfection Reagent from Mirus Bio LLC (Madison, WI). Supernatent was harvested after 2-3 days and the amount of virus present was titered in MT-2 cells using luciferase enzyme activity as a marker by measuring luciferase enzyme activity. Luciferase was quantitated using the EnduRen Live Cell Substrate from Promega (Madison, WI). Antiviral activities of compounds toward the recombinant virus were quantified by measuring luciferase activity in MT-2 cells infected for 4-5 days with the recombinant virus in the presence of serial dilutions of the compound.
The 50% effective concentration (EC50) was calculated by using the exponential form of the median effect equation where (Fa)=1/[1+(ED50/drug conc.)m] (Johnson VA, Byington RT. Infectivity Assay. In Techniques in HIV Research. ed. Aldovini A, Walker BD. 71-76. New York: Stockton Press. 1990). The 50% inhibitory concentration (EC50) was calculated by using the exponential form of the median effect equation where percent inhibition=1/[1+(EC50/drug concentration)m], where m is a parameter that reflects the slope of the concentration-response curve.

A short description of data set [2]: Compound cytotoxicity, XTT-based colorimetric assay. The data set is classed as cell-based. Conditions: human; uninfected MT2 cells, day 4, XTT assay. The method, then: Compound cytotoxicity and the corresponding CC50 values were determined using the same protocol as described in the antiviral assay except that uninfected cells were used. Cytotoxicity was assessed on day 4 in uninfected MT2 cells by using a XTT (2,3-bis[2-Methoxy-4-nitro-5-sulfophenyl]-2H-tetrazolium-5-carboxyanilide inner salt)-based colorimetric assay (Sigma-Aldrich, St Louis, Mo).

Regarding `CCc1ccc2c(=O)n(-c3ccc(Cl)c4c(NS(C)(=O)=O)nn(C)c34)c([C@H](Cc3cc(F)cc(F)c3)NC(=O)Cn3nc(C(F)F)c4c3C(F)(F)[C@@H]3C[C@H]43)nc2c1` [Example 16, N—((S)-1-(3-(4-chloro-1-methyl-3-(methylsulfonamido)-1H-indazol-7-yl)-7-ethyl-4-oxo-3,4-dihydroquinazolin-2-yl)-2-(3,5-difluorophenyl)ethyl)-2-((3bS,4aR)-3-(difluoromethyl)-5,5-difluoro-3b,4,4a,5-tetrahydro-1H-cyclopropa[3,4]cyclopenta[1,2-c]pyrazol-1-yl)acetamide], the EC50 (commonly the concentration needed to bring the measured effect to its halfway point) in data set [1] was 0.084 nM. In addition, the CC50 (commonly the concentration that lowers cell viability or growth by half) at 4 day in data set [2] was more than 1000 nM.

`CC(C)Oc1ccc2c(=O)n(-c3ccc(Cl)c4c(NS(C)(=O)=O)nn(C)c34)c([C@H](Cc3cc(F)cc(F)c3)NC(=O)Cn3nc(C(F)F)c4c3C(F)(F)C3CC43)nc2n1` (stereo in doubt) [Example 38, N—((S)-1-(3-(4-chloro-1-methyl-3-(methylsulfonamido)-1H-indazol-7-yl)-7-isopropoxy-4-oxo-3,4-dihydropyrido[2,3-d]pyrimidin-2-yl)-2-(3,5-difluorophenyl)ethyl)-2-((3bS,4aR)-3-(difluoromethyl)-5,5-difluoro-3b,4,4a,5-tetrahydro-1H-cyclopropa[3,4]cyclopenta[1,2-c]pyrazol-1-yl)acetamide]: the EC50 in data set [1] is 0.045 nM. For the same compound, in data set [2], the cytotoxic concentration (CC50) at 4 day was more than 1000 nM.

For the compound `Cn1nc(NS(C)(=O)=O)c2c(Cl)ccc(-n3c([C@H](Cc4cc(F)cc(F)c4)NC(=O)Cn4nc(C(F)F)c5c4C(F)(F)[C@@H]4C[C@H]54)nc4cc(O)ccc4c3=O)c21` [Example 4, N—((S)-1-(3-(4-chloro-1-methyl-3-(methylsulfonamido)-1H-indazol-7-yl)-7-hydroxy-4-oxo-3,4-dihydroquinazolin-2-yl)-2-(3,5-difluorophenyl)ethyl)-2-((3bS,4aR)-3-(difluoromethyl)-5,5-difluoro-3b,4,4a,5-tetrahydro-1H-cyclopropa[3,4]cyclopenta[1,2-c]pyrazol-1-yl)acetamide], the EC50 in data set [1] is 0.273 nM. The compound also showed a CC50 at 4 day in data set [2] of more than 1000 nM.

For `CC(F)(F)c1ccc2c(=O)n(-c3ccc(Cl)c4c(NS(=O)(=O)C5CC5)nn(CC(F)F)c34)c([C@H](Cc3cc(F)cc(F)c3)NC(=O)Cn3nc(C(F)F)c4c3C(F)(F)[C@@H]3C[C@H]43)nc2c1` [Example 18, N—((S)-1-(3-(4-chloro-3-(cyclopropanesulfonamido)-1-(2,2-difluoroethyl)-1H-indazol-7-yl)-7-(1,1-difluoroethyl)-4-oxo-3,4-dihydroquinazolin-2-yl)-2-(3,5-difluorophenyl)ethyl)-2-((3bS,4aR)-3-(difluoromethyl)-5,5-difluoro-3b,4,4a,5-tetrahydro-1H-cyclopropa[3,4]cyclopenta[1,2-c]pyrazol-1-yl)acetamide], the concentration giving a half-maximal response (EC50) in data set [1] was 0.069 nM. In data set [2], this compound registered a CC50 at 4 day of more than 1000 nM.

With `COc1cc(F)c2c(=O)n(-c3ccc(Cl)c4c(NS(=O)(=O)C5CC5)nn(CC(F)F)c34)c([C@H](Cc3cc(F)cc(F)c3)NC(=O)Cn3nc(C(F)F)c4c3C(F)(F)[C@@H]3C[C@H]43)nc2c1` [Example 8, N—((S)-1-(3-(4-chloro-3-(cyclopropanesulfonamido)-1-(2,2-difluoroethyl)-1H-indazol-7-yl)-5-fluoro-7-methoxy-4-oxo-3,4-dihydroquinazolin-2-yl)-2-(3,5-difluorophenyl)ethyl)-2-((3bS,4aR)-3-(difluoromethyl)-5,5-difluoro-3b,4,4a,5-tetrahydro-1H-cyclopropa[3,4]cyclopenta[1,2-c]pyrazol-1-yl)acetamide], in data set [1], the EC50 worked out at 0.15 nM. This compound also yielded a CC50 at 4 day in data set [2] of more than 1000 nM.

On to `O=C(Cn1nc(C(F)F)c2c1C(F)(F)[C@@H]1C[C@H]21)N[C@@H](Cc1cc(F)cc(F)c1)c1nc2cc(C3CC3)ccc2c(=O)n1-c1ccc(Cl)c2c(NS(=O)(=O)C3CC3)nn(CC(F)F)c12` [Example 31, N—((S)-1-(3-(4-chloro-3-(cyclopropanesulfonamido)-1-(2,2-difluoroethyl)-1H-indazol-7-yl)-7-cyclopropyl-4-oxo-3,4-dihydroquinazolin-2-yl)-2-(3,5-difluorophenyl)ethyl)-2-((3bS,4aR)-3-(difluoromethyl)-5,5-difluoro-3b,4,4a,5-tetrahydro-1H-cyclopropa[3,4]cyclopenta[1,2-c]pyrazol-1-yl)acetamide], for which the EC50 in data set [1] amounted to 0.046 nM. For the same compound, the CC50 at 4 day in data set [2] was more than 1000 nM.

In the case of `CC(C)[C@H](C)Oc1ccc2c(=O)n(-c3ccc(Cl)c4c(NS(C)(=O)=O)nn(C)c34)c([C@H](Cc3cc(F)cc(F)c3)NC(=O)Cn3nc(C(F)F)c4c3C(F)(F)[C@@H]3C[C@H]43)nc2c1` [Example 13, N—((S)-1-(3-(4-chloro-1-methyl-3-(methylsulfonamido)-1H-indazol-7-yl)-7-(((S)-3-methylbutan-2-yl)oxy)-4-oxo-3,4-dihydroquinazolin-2-yl)-2-(3,5-difluorophenyl)ethyl)-2-((3bS,4aR)-3-(difluoromethyl)-5,5-difluoro-3b,4,4a,5-tetrahydro-1H-cyclopropa[3,4]cyclopenta[1,2-c]pyrazol-1-yl)acetamide], the EC50 in data set [1] was found to be 0.239 nM. Also, the CC50 at 4 day in data set [2] is more than 1000 nM.

Turning to `COc1ccc2c(=O)n(-c3ccc(Cl)c4c(NS(C)(=O)=O)nn(C)c34)c([C@H](Cc3cc(F)cc(F)c3)NC(=O)Cn3ccc(C4CC4)n3)nc2c1` [Example 6, (S)—N-(1-(3-(4-chloro-1-methyl-3-(methylsulfonamido)-1H-indazol-7-yl)-7-methoxy-4-oxo-3,4-dihydroquinazolin-2-yl)-2-(3,5-difluorophenyl)ethyl)-2-(3-cyclopropyl-1H-pyrazol-1-yl)acetamide], in data set [1], the EC50 stood at 0.347 nM. Also, the CC50 at 4 day in data set [2] is more than 1000 nM.

Turning to `Cn1nc(NS(C)(=O)=O)c2c(Cl)ccc(-n3c([C@H](Cc4cc(F)cc(F)c4)NC(=O)Cn4nc(C(F)F)c5c4C(F)(F)[C@@H]4C[C@H]54)nc4cc(C(F)(F)C(C)(C)C)ccc4c3=O)c21` [Example 29, N—((S)-1-(3-(4-chloro-1-methyl-3-(methylsulfonamido)-1H-indazol-7-yl)-7-(1,1-difluoro-2,2-dimethylpropyl)-4-oxo-3,4-dihydroquinazolin-2-yl)-2-(3,5-difluorophenyl)ethyl)-2-((3bS,4aR)-3-(difluoromethyl)-5,5-difluoro-3b,4,4a,5-tetrahydro-1H-cyclopropa[3,4]cyclopenta[1,2-c]pyrazol-1-yl)acetamide], the EC50 in data set [1] was 0.115 nM. Also, the CC50 at 4 day in data set [2] was more than 1000 nM.

As to `O=C(Cn1nc(C(F)F)c2c1C(F)(F)[C@@H]1C[C@H]21)N[C@@H](Cc1cc(F)cc(F)c1)c1nc2cc(CCC(F)(F)F)ccc2c(=O)n1-c1ccc(Cl)c2c(NS(=O)(=O)C3CC3)nn(CC(F)F)c12` [Example 24, N—((S)-1-(3-(4-chloro-3-(cyclopropanesulfonamido)-1-(2,2-difluoroethyl)-1H-indazol-7-yl)-4-oxo-7-(3,3,3-trifluoropropyl)-3,4-dihydroquinazolin-2-yl)-2-(3,5-difluorophenyl)ethyl)-2-((3bS,4aR)-3-(difluoromethyl)-5,5-difluoro-3b,4,4a,5-tetrahydro-1H-cyclopropa[3,4]cyclopenta[1,2-c]pyrazol-1-yl)acetamide], the EC50 in data set [1] turned out to be 0.155 nM. In addition, the CC50 at 4 day in data set [2] is more than 1000 nM.

For the origin of these results see patent publication US20240374598A1, “INHIBITORS OF HUMAN IMMUNODEFICIENCY VIRUS REPLICATION” (ViiV HEALTHCARE UK (NO.5) LIMITED, priority 2018, published 2024).
